Assays:
Human LDHA = Human LDHA (Homo sapiens (Human), UniProt P00338); assay: human LDHA primary biochemical assay (resazurin/diaphorase coupled, fluorescence); conditions: LDHA inhibitory activity
From the text: Test compounds were placed in a Greiner Bio-One (Monroe, N.C.) 1536-well black solid bottom assay plate. 200 millimolar (mM) Tris HCl, pH 7.4, 100 micromolar […] EDTA and 0.01% TWEEN-20™, final concentration, was used as the assay buffer. The LDHA reagent was 2 nanomolar (nM) Human LDHA (Meridian Life Science, Inc., Memphis, Tenn.), final concentration, in assay buffer.

MiaPaCa2 cells = assay: cell-based HT lactate assay, colorimetric/fluorometric detection (inhibition of lactate production); conditions: class symbols, 0 to 3 pluses
Protocol: Cell-based HT Lactate assay is a miniaturized Biovision Lactate Colorimetric/Fluorometric Assay Kit (Cat #K607-100). The assay is roughly a 3.5 hour assay run in a 1536 plate format. Cell number optimization should be run for each cell line to achieve an optimal number in which lactate production equals roughly 90% of the standard curve range. Cell number per well optimization has been performed with the following cell lines: MiaPaCa2—500 cells/well, SNU398—500 cells/well, and P493—500 cells/well.
The lactate activity in Table 8 is represented by 0 to 3 pluses as follows: +++<1 μM; ++1-10 μM; +10-57 μM; and −>57 μM.

[1] = assay of Example 1, activity level classes
[2] = activity level based on IC50 (Table 7)

| IC50 (MiaPaCa2 cells; Homo sapiens, MIA PaCa-2) | SMILES | IC50 (Human LDHA; [1]) | IC50 (MiaPaCa2 cells) | IC50 (Human LDHA; [2]) |
| --- | --- | --- | --- | --- |
|  | COc1cccc(-c2cc(-c3nn(-c4nc(C(=O)O)cs4)c(CC4CC4)c3Cc3ccc(S(N)(=O)=O)c(F)c3)ccc2F)c1 [Compound 330] | < 100 nM | < 1000 nM |  |
|  | NS(=O)(=O)c1ccc(Cc2c(-c3cccc(-c4ccccc4)c3)nn(-c3nc(C(=O)O)cs3)c2CC2CC2)cc1F [Compound 331] | < 100 nM | < 1000 nM |  |
|  | Cc1ccc(-c2cccc(-c3nn(-c4nc(C(=O)O)cs4)c(CC4CC4)c3Cc3ccc(S(N)(=O)=O)c(F)c3)c2)cc1 [Compound 332] | < 100 nM | < 1000 nM |  |
|  | NS(=O)(=O)c1ccc(Cc2c(-c3cccc(OC4CCCC4)c3)nn(-c3nc(C(=O)O)cs3)c2CC2CC2)cc1F [Compound 336] | < 100 nM | < 1000 nM |  |
|  | NS(=O)(=O)c1ccc(Cc2c(-c3cccc(OC4CCCC4)c3)nn(-c3nc(C(=O)O)cs3)c2CC2CC2)cc1 [Compound 337] | < 100 nM | < 1000 nM |  |
| < 1000 nM | N[S+](=O)([O-])c1ccc(Cc2c(-c3cccc(OC4CCCC4)c3)nn(-c3nc(C(=O)O)cs3)c2CC2CC2)c(F)c1 [Compound 338] |  |  | < 100 nM |
|  | NS(=O)(=O)c1ccc(Cc2c(-c3cccc(-c4cccc(F)c4)c3)nn(-c3nc(C(=O)O)cs3)c2CC2CC2)cc1F [Compound 365] |  | < 1000 nM | < 100 nM |
|  | N[S+](=O)([O-])c1ccc(Cc2c(-c3ccc(F)c(-c4ccccc4F)c3)nn(-c3nc(C(=O)O)cs3)c2CC2CC2)cc1F [Compound 366] |  | < 1000 nM | < 100 nM |
|  | N[S+](=O)([O-])c1ccc(Cc2c(-c3ccc(F)c(-c4ccccc4)c3)nn(-c3nc(C(=O)O)cs3)c2CC2CC2)cc1F [Compound 367] |  | < 1000 nM | < 100 nM |
|  | NS(=O)(=O)c1cccc(Cc2c(-c3ccc(F)c(-c4cccc(F)c4)c3)nn(-c3nc(C(=O)O)cs3)c2CC2CC2)c1 [Compound 368] |  | 10000 to 57000 nM | 1000 to 57000 nM |
|  | N[S+](=O)([O-])c1ccc(Cc2c(-c3ccc(F)c(C4=CCNCC4)c3)nn(-c3nc(C(=O)O)cs3)c2CC2CC2)cc1F [Compound 369] |  | 10000 to 57000 nM | < 100 nM |
|  | N[S+](=O)([O-])c1ccc(Cc2c(-c3cccc(-c4cccc(F)c4)c3)nn(-c3nc(C(=O)O)cs3)c2CC2CC2)cc1 [Compound 370] |  | 1000 to 10000 nM | < 100 nM |
|  | N=[S+](N)([O-])c1ccc(Cc2c(-c3ccc(F)c(-c4cccc(F)c4)c3)nn(-c3nc(C(=O)O)cs3)c2CC2CC2)cc1F (stereo not drawn) [Compound 371] |  | < 1000 nM | < 100 nM |
|  | NS(=O)(=O)c1ccc(Cc2c(-c3cccc(C4CCCC4)c3)nn(-c3nc(C(=O)O)cs3)c2CC2CC2)cc1 [Compound 372] |  | 1000 to 10000 nM | < 100 nM |
|  | NS(=O)(=O)c1ccc(Cc2c(-c3ccc(F)c(C4CCCC4)c3)nn(-c3nc(C(=O)O)cs3)c2CC2CC2)cc1F [Compound 373] |  | < 1000 nM | < 100 nM |
|  | N[S+](=O)([O-])c1ccc(Cc2c(-c3ccc(F)c(C4CCCCC4)c3)nn(-c3nc(C(=O)O)cs3)c2CC2CC2)cc1F [Compound 374] |  | < 1000 nM | < 100 nM |
|  | NS(=O)(=O)c1ccc(Cc2c(-c3ccc(F)c(C4C5CC6CC(C5)CC4C6)c3)nn(-c3nc(C(=O)O)cs3)c2CC2CC2)cc1F (stereo not drawn) [Compound 375] |  | 1000 to 10000 nM | 100 to 1000 nM |
|  | N[S+](=O)([O-])c1ccc(Cc2c(-c3cccc(S(F)(F)(F)(F)F)c3)nn(-c3nc(C(=O)O)cs3)c2CC2CC2)cc1F [Compound 376] |  | < 1000 nM | < 100 nM |
|  | CCOC(=O)c1csc(-n2nc(-c3ccc(F)c(-c4cccc(F)c4)c3)c(Cc3ccc([S+](N)(=O)[O-])c(F)c3)c2CC2CC2)n1 [Compound 377] |  | > 57000 nM | > 57000 nM |
|  | NS(=O)(=O)c1ccc(Cc2c(-c3ccc(F)c(CC4CC4)c3)nn(-c3nc(C(=O)O)cs3)c2CC2CC2)cc1F [Compound 378] |  | < 1000 nM | < 100 nM |
|  | N[S+](=O)([O-])c1ccc(Cc2c(-c3ccc(F)c(C4=COCCC4)c3)nn(-c3nc(C(=O)O)cs3)c2CC2CC2)cc1F [Compound 379] |  | < 1000 nM | < 100 nM |
|  | N[S+](=O)([O-])c1ccc(Cc2c(-c3ccc(F)c(C4=CCN(C(=O)C5CC5)CC4)c3)nn(-c3nc(C(=O)O)cs3)c2CC2CC2)cc1F [Compound 380] |  | 1000 to 10000 nM | < 100 nM |
|  | CCC(C)(C)c1cc(-c2nn(-c3nc(C(=O)O)cs3)c(CC3CC3)c2Cc2ccc(S(N)(=O)=O)c(F)c2)ccc1F [Compound 381] |  | < 1000 nM | < 100 nM |
|  | N[S+](=O)([O-])c1ccc(Cc2c(-c3ccc(F)c(C4CCC4)c3)nn(-c3nc(C(=O)O)cs3)c2CC2CC2)cc1F [Compound 382] |  | < 1000 nM | < 100 nM |

| IC50 (MiaPaCa2 cells; Homo sapiens, MIA PaCa-2) | SMILES | IC50 (Human LDHA; [1]) | IC50 (MiaPaCa2 cells) | IC50 (Human LDHA; [2]) |
| --- | --- | --- | --- | --- |
|  | CC(C)c1cc(-c2nn(-c3nc(C(=O)O)cs3)c(CC3CC3)c2Cc2ccc(S(N)(=O)=O)c(F)c2)ccc1F [Compound 383] |  | < 1000 nM | < 100 nM |
|  | CC(c1ccccc1)c1cc(-c2nn(-c3nc(C(=O)O)cs3)c(CC3CC3)c2Cc2ccc(S(N)(=O)=O)c(F)c2)ccc1F (stereo not drawn) [Compound 384] |  | < 1000 nM | < 100 nM |
|  | N[S+](=O)([O-])c1ccc(Cc2c(-c3ccc(F)c(C4CC4)c3)nn(-c3nc(C(=O)O)cs3)c2CC2CC2)cc1F [Compound 385] |  | < 1000 nM | < 100 nM |
|  | CC(C)(C)Cc1cc(-c2nn(-c3nc(C(=O)O)cs3)c(CC3CC3)c2Cc2ccc(S(N)(=O)=O)c(F)c2)ccc1F [Compound 386] |  | < 1000 nM | < 100 nM |
|  | N[S+](=O)([O-])c1ccc(Cc2c(-c3ccc(F)c(-c4cccc(CN5CCOCC5)c4)c3)nn(-c3nc(C(=O)O)cs3)c2CC2CC2)cc1F [Compound 387] |  | 1000 to 10000 nM | < 100 nM |
|  | N[S+](=O)([O-])c1ccc(Cc2c(-c3ccc(F)c(CCCCC(F)(F)F)c3)nn(-c3nc(C(=O)O)cs3)c2CC2CC2)cc1F [Compound 388] |  | 1000 to 10000 nM | < 100 nM |
|  | CNS(=N)(=O)c1ccc(Cc2c(-c3ccc(F)c(-c4cccc(F)c4)c3)nn(-c3nc(C(=O)O)cs3)c2CC2CC2)cc1F (stereo not drawn) [Compound 389] |  | 1000 to 10000 nM | 100 to 1000 nM |
|  | CN1CCC(c2cc(-c3nn(-c4nc(C(=O)O)cs4)c(CC4CC4)c3Cc3ccc([S+](N)(=O)[O-])c(F)c3)ccc2F)CC1 [Compound 390] |  | > 57000 nM | < 100 nM |
|  | N[S+](=O)([O-])c1ccc(Cc2c(-c3ccc(F)c(C4CCOCC4)c3)nn(-c3nc(C(=O)O)cs3)c2CC2CC2)cc1F [Compound 391] |  | < 1000 nM | < 100 nM |
|  | CCOC(=O)c1csc(-n2nc(-c3cccc(-c4ccccc4)c3)c(Cc3ccc(S(N)(=O)=O)c(F)c3)c2CC2CC2)n1 [Compound 393] |  | > 57000 nM | > 57000 nM |
|  | NS(=O)(=O)c1ccc(Cc2c(-c3cccc(N4CCC(F)(F)CC4)c3)nn(-c3nc(C(=O)O)cs3)c2CC2CC2)cc1F [Compound 394] |  | 10000 to 57000 nM | < 100 nM |
|  | NS(=O)(=O)c1ccc(Cc2c(-c3cccc(N4CCC(F)(F)C4)c3)nn(-c3nc(C(=O)O)cs3)c2CC2CC2)cc1F [Compound 395] |  | 10000 to 57000 nM | 1000 to 57000 nM |
|  | NS(=O)(=O)c1ccc(Cc2c(-c3cccc(N4CCCC(C(F)(F)F)C4)c3)nn(-c3nc(C(=O)O)cs3)c2CC2CC2)cc1F (stereo not drawn) [Compound 396] |  | 1000 to 10000 nM | < 100 nM |
|  | NS(=O)(=O)c1ccc(Cc2c(-c3cccc(N4CCCC(F)(F)C4)c3)nn(-c3nc(C(=O)O)cs3)c2CC2CC2)cc1F [Compound 397] |  | 1000 to 10000 nM | < 100 nM |
|  | NS(=O)(=O)c1ccc(Cc2c(-c3cccc(C(O)(C4CC4)C(F)(F)F)c3)nn(-c3nc(C(=O)O)cs3)c2CC2CC2)cc1F (stereo not drawn) [Compound 398] |  | 10000 to 57000 nM | < 100 nM |
| > 57000 nM | N[S+](=O)([O-])c1ccc(Cc2c(CC3CC3)nn(-c3nc(C(=O)O)cs3)c2-c2ccc(C(O)(C3CC3)C(F)(F)F)cc2)cc1F (stereo not drawn) [Compound 399] |  |  | 1000 to 57000 nM |
|  | NS(=O)(=O)c1ccc(Cc2c(-c3ccc(F)c(OCC4CC4(F)F)c3)nn(-c3nc(C(=O)O)cs3)c2CC2CC2)cc1F (stereo not drawn) [Compound 400] |  | < 1000 nM | < 100 nM |
|  | CC(C)(C)C#Cc1cc(-c2nn(-c3nc(C(=O)O)cs3)c(CC3CC3)c2Cc2ccc(S(N)(=O)=O)c(F)c2)ccc1F [Compound 402] |  | < 1000 nM | < 100 nM |
|  | NS(=O)(=O)c1ccc(Cc2c(-c3ccc(F)c(C#Cc4cccs4)c3)nn(-c3nc(C(=O)O)cs3)c2CC2CC2)cc1F [Compound 403] |  | < 1000 nM | < 100 nM |
| < 1000 nM | COCC#Cc1cc(-c2nn(-c3nc(C(=O)O)cs3)c(CC3CC3)c2Cc2ccc([S+](N)(=O)[O-])c(F)c2)ccc1F [Compound 404] |  |  | < 100 nM |
|  | Cn1cncc1C#Cc1cc(-c2nn(-c3nc(C(=O)O)cs3)c(CC3CC3)c2Cc2ccc(S(N)(=O)=O)c(F)c2)ccc1F [Compound 405] |  | < 1000 nM | < 100 nM |
|  | NS(=O)(=O)c1ccc(Cc2c(-c3ccc(F)c(C4CC4)c3)nn(-c3nc(C(=O)O)cs3)c2CC2CC2)cc1Cl [Compound 406] |  | 1000 to 10000 nM | < 100 nM |
|  | Cc1ccc(-c2cc(-c3nn(-c4nc(C(=O)O)cs4)c(CC4CC4)c3Cc3ccc(S(N)(=O)=O)c(Cl)c3)ccc2F)s1 [Compound 407] |  | < 1000 nM | < 100 nM |
|  | Cc1ccc(C#Cc2cc(-c3nn(-c4nc(C(=O)O)cs4)c(CC4CC4)c3Cc3ccc(S(N)(=O)=O)c(F)c3)ccc2F)s1 [Compound 408] |  | < 1000 nM | < 100 nM |

From patent US10961200B2, “Small molecule inhibitors of lactate dehydrogenase and methods of use thereof” (THE UNITED STATES OF AMERICA, AS REPRESENTED BY THE …, priority 2014, dated 2021)
